Consider 9 molecules from ChEMBL document CHEMBL2177023, “Effects of antimalarial molecules on the gametocyte stage of Plasmodium falciparum: the debate” (J Med Chem, 2012).

The test system of series [1] is Plasmodium berghei. As to the kind of experiment: Antimalarial activity against Plasmodium berghei infected in mosquitoes assessed as reduction in number of sporozoites. On the set-up: scale not given: the % may be the effect or the level left. It counts as functional.
The test system of series [2] is Plasmodium chabaudi. As to the kind of experiment: Antimalarial activity against Plasmodium chabaudi infected rat malaria model. It counts as functional.
The test system of series [3] is Plasmodium berghei. The experiment in a line: Antimalarial activity against Plasmodium berghei infected in mosquitoes assessed as reduction in number of oocysts. The format is functional. On the set-up: scale not given: the % may be the effect or the level left.
The subject of series [4] is Plasmodium falciparum. As to the kind of experiment: Antimalarial activity against Plasmodium falciparum KT3 gametocytes. The format is functional, organism-based.
Series [5] has as its system Plasma. The experiment in a line: (§1) Half life in human plasma. It counts as ADME, cell-free.
Series [6] concerns Plasmodium falciparum. As to the kind of experiment: Antimalarial activity against Plasmodium falciparum KT1 gametocytes. It counts as functional, organism-based.
The subject of series [7] is Plasmodium falciparum. The experiment in a line: Antimalarial activity against transgenic Plasmodium falciparum 3D7 GFP16B gametocytes. The format is functional, organism-based.
Series [8] deals with Plasmodium falciparum. The experiment in a line: Antimalarial activity against Plasmodium falciparum gametocytes. It counts as functional, organism-based.
Series [9] concerns Plasmodium falciparum. As to the kind of experiment: Antimalarial activity against Plasmodium falciparum stage 3 to 5 gametocytes. It counts as functional, organism-based.
The nature of series [10]: as §1. The format is ADME, cell-free.
The test system of series [11] is Plasmodium falciparum. The experiment in a line: Antimalarial activity against Plasmodium falciparum gametocytes by GFP-luciferase reporter gene assay. It counts as functional, organism-based. For orientation: In a reporter assay the amount or activity of a reporter protein is the signal.

By ED50 is commonly meant the dose at which the effect has come halfway, by size or by number of responders. On to `COc1cc2cc(C(=O)Nc3cc(N)c4ccccc4c3CCCl)[nH]c2c(OC)c1OC` [CENTANAMYCIN], for which the Activity in series [1] came out at 99%; in series [3], 83%. Moreover, in series [2], the ED50 worked out at 1.5 mg/kg. As usually defined, the IC50 is the concentration that inhibits the measured activity by half. In the case of `COc1cc(NC(C)CCCN)c2ncccc2c1` (stereo unspecified) [PRIMAQUINE], the concentration for half-maximal inhibition (IC50) in [4] was 2.1 µM; in series [6] it was 0.8 µM. This molecule yielded a t1/2 in [5] of 0.03 weeks. Turning to `COc1ccc2nc3cc(Cl)ccc3c(Nc3cc(CN4CCCC4)c(O)c(CN4CCCC4)c3)c2n1` [PYRONARIDINE], the figures for the IC50 in [7], in series [4] and in [6] were 0.023 µM, 0.02 µM and 0.006 µM, respectively. Take `COc1cc(N[C@H](C)CCCN)c2nccc(C)c2c1Oc1ccc(Cl)c(Cl)c1`: in series [8], half-maximal inhibition (IC50) was put at 3.8 µM. Turning to `CC[C@H](C)[C@H](NC(=O)[C@H]([C@@H](C)CC)N(C)C(C)=O)C(=O)N[C@H](C(=O)N[C@@H](CC(C)C)C(=O)[C@@]1(C)CO1)[C@@H](C)O` [EPOXOMYCIN], the IC50 in series [9] worked out at 0.002 µM. Regarding `CN(C)Cc1ccc(Nc2c3ccccc3nc3ccccc23)cc1`, the IC50 in series [4] and in series [6] was 0.6 µM each time. In the case of `C=C(NC(=O)C(=C)NC(=O)c1csc(C2=N[C@@H]3c4csc(n4)[C@H]4NC(=O)c5csc(n5)[C@H]([C@](C)(O)[C@@H](C)O)NC(=O)[C@H]5CSC(=N5)/C(=C/C)NC(=O)[C@H]([C@@H](C)O)NC(=O)c5csc(n5)[C@]3(CC2)NC(=O)[C@H](C)NC(=O)C(=C)NC(=O)[C@H](C)NC(=O)[C@H]([C@@H](C)CC)N[C@@H]2C=Cc3c([C@H](C)O)cc(nc3[C@H]2O)C(=O)O[C@@H]4C)n1)C(N)=O` [THIOSTREPTON], the IC50 in [8] is below 10 µM. What is called half-life is the time needed for the level to fall by half in the phase considered. Molecule `COc1cc(C)c2c(Oc3cccc(C(F)(F)F)c3)c(OC)cc(NC(C)CCCN)c2n1` (stereo unspecified) [TAFENOQUINE] came in with a half-life in series [10] of 14 days. As for `CN(C)c1ccc2nc3ccc(=[N+](C)C)cc-3sc2c1` [METHYLENE BLUE CATION], the IC50 in [11] was found to be 0.012 µM.
